{
  "source": "PubChem BioAssay AID602166",
  "about": "(The Scripps Research Institute Molecular Screening Center, 2012)",
  "note": "pIC50: −log10 of the molar value. Active and inactive are the calls of the source. The rule behind the calls is not given here.",
  "data": [
    {"molecular_target": "Nuclear receptor coactivator 3 (Homo sapiens) (UniProt Q9Y6Q9)", "sequence (Q9Y6Q9 whole entry, looked up)": "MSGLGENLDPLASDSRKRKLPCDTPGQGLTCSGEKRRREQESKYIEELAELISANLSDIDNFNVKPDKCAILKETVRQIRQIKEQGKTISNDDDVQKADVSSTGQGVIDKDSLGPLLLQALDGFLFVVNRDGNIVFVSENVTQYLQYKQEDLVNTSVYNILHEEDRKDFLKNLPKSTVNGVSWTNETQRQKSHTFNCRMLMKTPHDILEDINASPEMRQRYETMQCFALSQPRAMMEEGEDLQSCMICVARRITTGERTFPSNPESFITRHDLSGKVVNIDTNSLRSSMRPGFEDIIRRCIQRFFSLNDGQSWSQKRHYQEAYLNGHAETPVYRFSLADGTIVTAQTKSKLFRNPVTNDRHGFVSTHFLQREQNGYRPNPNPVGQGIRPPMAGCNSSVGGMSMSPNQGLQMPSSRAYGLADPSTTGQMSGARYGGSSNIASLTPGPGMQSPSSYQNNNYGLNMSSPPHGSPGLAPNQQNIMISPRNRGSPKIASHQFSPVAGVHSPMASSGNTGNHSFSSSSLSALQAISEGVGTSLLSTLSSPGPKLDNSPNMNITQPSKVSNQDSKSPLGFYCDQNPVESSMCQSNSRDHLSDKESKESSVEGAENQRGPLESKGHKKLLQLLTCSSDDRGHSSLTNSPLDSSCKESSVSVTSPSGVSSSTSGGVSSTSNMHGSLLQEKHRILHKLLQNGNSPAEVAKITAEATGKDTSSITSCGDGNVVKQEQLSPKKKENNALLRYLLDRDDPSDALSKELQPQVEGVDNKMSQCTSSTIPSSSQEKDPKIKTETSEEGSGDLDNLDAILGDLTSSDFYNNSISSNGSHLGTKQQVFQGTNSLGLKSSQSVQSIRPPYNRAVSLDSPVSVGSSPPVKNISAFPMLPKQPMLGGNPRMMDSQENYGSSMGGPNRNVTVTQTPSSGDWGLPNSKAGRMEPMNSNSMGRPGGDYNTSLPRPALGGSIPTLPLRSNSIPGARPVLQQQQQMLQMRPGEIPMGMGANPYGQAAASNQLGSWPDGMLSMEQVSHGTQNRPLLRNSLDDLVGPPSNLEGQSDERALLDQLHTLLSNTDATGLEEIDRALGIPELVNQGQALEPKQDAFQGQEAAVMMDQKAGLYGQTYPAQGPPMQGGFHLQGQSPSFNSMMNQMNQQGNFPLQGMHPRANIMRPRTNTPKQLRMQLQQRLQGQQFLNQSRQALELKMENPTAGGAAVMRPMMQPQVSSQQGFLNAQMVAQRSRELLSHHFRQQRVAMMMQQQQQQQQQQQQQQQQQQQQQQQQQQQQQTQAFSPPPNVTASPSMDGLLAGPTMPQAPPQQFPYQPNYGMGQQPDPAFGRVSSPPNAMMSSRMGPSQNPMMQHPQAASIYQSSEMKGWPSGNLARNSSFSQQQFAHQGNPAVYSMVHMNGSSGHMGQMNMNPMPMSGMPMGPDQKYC", "assay": "NCOA3 reporter inhibition potency – cell-based, luminescence, dose response (AID 602166);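 note: potency for reduction of SRC3 reporter signal so compounds are inhibitors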", "conditions": "SRC3 luciferase reporter cell assay", "values": [
      {"smiles": "Cc1ccc2nc(-c3ccncc3)c(NC3CCCC3)n2c1", "IC50": "inactive"},
      {"smiles": "O=C(N/N=C/c1cc(Br)c(Br)s1)c1ccncc1", "pIC50": 5.06},
      {"smiles": "Nc1ccc(-c2cc3ccccc3oc2=O)cc1", "pIC50": 5.08},
      {"smiles": "CNC(=O)c1cccn(Cc2ccc(C(F)(F)F)cc2)c1=O", "IC50": "> 35.8 µM (inactive)"},
      {"smiles": "Cc1ccc2nc(C(F)(F)F)c(C#N)c(N)c2c1", "IC50": "inactive"},
      {"smiles": "Cc1nc(N)nc(N)c1-c1ccc(Cl)c(Cl)c1", "pIC50": 5.86},
      {"smiles": "NS(=O)(=O)c1ccc(Sc2nc3ccccc3s2)c([N+](=O)[O-])c1", "IC50": "inactive"},
      {"smiles": "O=C(Nc1cccnc1)c1ccc(C(=O)Nc2cccnc2)cc1", "IC50": "> 35.9 µM (inactive)"},
      {"smiles": "Clc1ccc(-c2csc3ncnc(NCCN4CCOCC4)c23)cc1", "pIC50": 5.09},
      {"smiles": "COc1cccc(NC(=O)CSc2nnc(-c3cc(C)n(-c4ccccc4)c3C)o2)c1", "IC50": "> 35.9 µM (inactive)"},
      {"smiles": "CO[C@@]12[C@@H]3N[C@@H]3CN1C1=C(C(=O)C(N)=C(C)C1=O)[C@@H]2COC(N)=O", "IC50": "> 35.8 µM (inactive)"},
      {"smiles": "c1ccc2c(c1)Nc1ccncc1S2", "IC50": "inactive"},
      {"smiles": "O=C(CCl)NC(Cc1ccccc1)c1ccccc1", "note": "(configuration not stated)", "pIC50": 5.25},
      {"smiles": "COc1ccc(-n2cnc3c(sc4nccc(N(C)C)c43)c2=O)cc1", "pIC50": 5.09},
      {"smiles": "C=CS(=O)(=O)N(Cc1ccc(Cl)c(Cl)c1)C[C@@H](O)CO", "pIC50": 5.16},
      {"smiles": "Cc1cccc(NC(=O)c2cc(Cl)ccc2[N+](=O)[O-])c1", "pIC50": 5.25},
      {"smiles": "Cc1ccc(C(=O)O/N=C(\\N)c2ccccn2)c(Cl)c1", "IC50": "> 35.9 µM (inactive)"},
      {"smiles": "COc1cc([C@@H]2c3cc4c(cc3[C@@H](O[C@@H]3O[C@@H]5CO[C@@H](C)O[C@H]5[C@H](O)[C@H]3O)[C@H]3COC(=O)[C@H]23)OCO4)cc(OC)c1O", "pIC50": 5.61},
      {"smiles": "Cc1ccc(C2=NN(C(=O)CCl)C(c3cccs3)C2)o1", "note": "(configuration not stated)", "IC50": "inactive"},
      {"smiles": "CN(Cc1cnc2nc(N)nc(N)c2n1)c1ccc(C(=O)N[C@@H](CCC(=O)O)C(=O)O)cc1", "IC50": "> 35.9 µM (inactive)"},
      {"smiles": "COc1cc(C(=O)N/N=C(\\c2ccccc2)c2ccccn2)cc(OC)c1OC", "IC50": "inactive"},
      {"smiles": "CCCS(=O)(=O)Nc1ccc(Nc2c3ccccc3nc3ccccc23)c(OC)c1", "pIC50": 6.22},
      {"smiles": "O=[N+]([O-])c1ccc(N(CCO)CCO)c2c1no[n+]2[O-]", "pIC50": 5.14},
      {"smiles": "CC(=O)NC(c1cc(Cl)c2cccnc2c1O)C(C)C", "note": "(configuration not stated)", "pIC50": 5.34},
      {"smiles": "O=C(Nc1nc2ccccc2s1)C1c2ccccc2Oc2ccccc21", "pIC50": 5.10},
      {"smiles": "COc1cc(/C=N/NC(=Nc2ccc(C)cc2)c2nc3ccccc3s2)ccc1O", "IC50": "> 35.9 µM (inactive)"},
      {"smiles": "CS(=O)(=O)c1ccc(Sc2nc3ccccc3s2)c([N+](=O)[O-])c1", "IC50": "> 35.9 µM (inactive)"},
      {"smiles": "CC(=O)c1ccc(Nc2c3c(nc4ccccc24)CCCC3)cc1", "IC50": "inactive"},
      {"smiles": "COc1cc2c(cc1OC)C(C)N(C(=O)c1cccc([N+](=O)[O-])c1)CC2", "note": "(configuration not stated)", "pIC50": 5.14},
      {"smiles": "COc1ccc2[nH]c(=O)c(CN(CCN3CCCC3)C(=O)Nc3ccccc3Cl)cc2c1", "IC50": "inactive"},
      {"smiles": "O=c1[nH]c2ccccc2n1C1CCN(C(c2cccc3ccccc23)c2nnnn2-c2ccc3c(c2)OCCO3)CC1", "note": "(configuration not stated)", "IC50": "inactive"},
      {"smiles": "COc1ccc(OC)c(N/C=C/C(=O)c2ccccc2)c1", "IC50": "inactive"},
      {"smiles": "C=CC[n+]1c(-c2ccc(C)cc2)csc1Nc1ccc(NC(C)=O)cc1", "IC50": "> 35.9 µM (inactive)"},
      {"smiles": "CN(C)S(=O)(=O)c1ccc(N2CCN(S(=O)(=O)c3ccc(F)cc3)CC2)c(Cl)c1", "pIC50": 5.10},
      {"smiles": "O=C(NCc1ccccc1)c1c(Cl)nc(Cl)c(Cl)c1Cl", "IC50": "inactive"},
      {"smiles": "Cc1ccc(-n2c(C)cc(C(=O)COc3cccnc3[N+](=O)[O-])c2C)cc1", "IC50": "> 35.9 µM (inactive)"},
      {"smiles": "Cc1c(Cl)cccc1NC(=O)Nc1ccccc1C(N)=O", "IC50": "> 35.9 µM (inactive)"},
      {"smiles": "CC(C)(C)C(=O)Nc1ccc(N=Nc2ccccc2)cc1", "IC50": "> 35.9 µM (inactive)"},
      {"smiles": "Cc1ccc(/C=C2/SC(=S)N(CCCC(=O)Nc3ccc(O)cc3)C2=O)cc1", "pIC50": 5.19},
      {"smiles": "Cc1c(/C(O)=C2/C(=O)C(=O)N(Cc3cccnc3)C2c2ccccn2)cnn1-c1ccccc1", "note": "(configuration not stated)", "IC50": "> 35.9 µM (inactive)"},
      {"smiles": "C(=Cc1cnc2ccccc2n1)c1ccc2c(c1)OCO2", "IC50": "inactive"},
      {"smiles": "CC1(C)N=C(N)N=C(N)N1CCCCc1ccccc1", "pIC50": 5.40},
      {"smiles": "O=C(CC(Nc1ccc(Cl)cc1Cl)C(=O)O)c1ccccc1", "note": "(configuration not stated)", "IC50": "> 35.9 µM (inactive)"},
      {"smiles": "CC(C)(C)c1cc(C(=O)N/N=C/c2ccc(O)cc2)n(-c2ccccc2)n1", "IC50": "> 35.9 µM (inactive)"},
      {"smiles": "CN1C(=O)C2(C(C#N)=C(N)N(c3cc(Cl)cc(Cl)c3)C3=C2C(=O)CC(C)(C)C3)c2ccccc21", "note": "(configuration not stated)", "pIC50": 5.36},
      {"smiles": "O=c1[nH]c2ccccc2n1C1CCN(C(c2cc3ccccc3o2)c2nnnn2Cc2ccccc2)CC1", "note": "(configuration not stated)", "IC50": "inactive"},
      {"smiles": "O=C(N/N=C\\c1ccc([N+](=O)[O-])s1)c1cncc(Br)c1", "pIC50": 5.26},
      {"smiles": "CN(Cc1cnc2nc(N)nc(N)c2n1)c1ccc(C(=O)NC(CCC(=O)O)C(=O)O)cc1", "note": "(configuration not stated)", "IC50": "> 35.9 µM (inactive)"},
      {"smiles": "NC(=O)c1sc2nc3c(c(-c4ccco4)c2c1N)CCC3", "pIC50": 5.95},
      {"smiles": "Cc1ccc(OCC(=O)c2cc(C)n(-c3ccccc3)c2C)c([N+](=O)[O-])n1", "IC50": "inactive"},
      {"smiles": "CCCC(=O)NC(c1ccc(Cl)cc1)c1ccc2cccnc2c1O", "note": "(configuration not stated)", "pIC50": 5.33},
      {"smiles": "CC1CCN(C2=NC(=O)/C(=C/c3ccccc3F)S2)CC1", "IC50": "> 35.9 µM (inactive)"}
    ]}
  ]
}
